The source of these data is patent US12636275B2, “Pharmaceutical use of ketoamide-based compound” (Shanghai Institute of Materia Medica, Chinese Academy of …, priority 2020, dated 2026).

Like-named read-outs stand apart in the source and are kept apart here.

A word on the EC50: it is the concentration at which the effect is half-maximal. The term IC50 denotes the concentration at which inhibition is half-maximal. As a reminder, the inhibition is how much of the control response was suppressed.

Series [1] deals with 2019 novel coronavirus (2019-nCov). Particulars: stated for positive control; read-out: EC50, inhibition of 2019-nCoV virus replication (positive compound CQ); cited from earlier work.
A further series has as its target human cathepsin L (Homo sapiens, UniProt P07711). Briefly: Inhibitory activity against human cathepsin L (FRET, Z-Phe-Arg-AMC substrate). Type of series: biochemical. Particulars: pH 5.5, 25° C. On the procedure: To determine the inhibitory activity of the compound against human cathepsin L (CatL): the enzyme level inhibitory activity against cathepsin L was determined by fluorescence resonance energy transfer (FRET) technique. In a 96-well plate, 10 μL buffer (50 mM CH3COONa, pH 5.5, 1 mM DTT, 2 mM EDTA) was added to each well, while 0.2 μL of compound (final concentrations were 100 nM, 10 nM, 1 nM, 0.1 nM and 0.01 nM, respectively) and 10 μL cathepsin L were added, and incubated at 25° C. for 15 min. Then 10 μL fluorescent substrate (Z-Phe-Arg-AMC, final concentration was 20 μM) diluted with buffer was added. The fluorescence parameters were determined by Tecan Infinite 200pro fluorescence spectrophotometer. The excitation wavelength and emission wavelength were 360 nm and 465 nm respectively, kept at 25° C., and the data were read after 30 min. A negative control was used, in which no compound was added to the control, and the rest was the same.

Another series addresses T1, 2019-nCoV 3CL protease (Severe acute respiratory syndrome coronavirus 2, UniProt P0DTD1).
T1 construct: against 3CL protease of 2019 novel coronavirus (2019-nCoV 3CL^pro)
The series can be described thus: Inhibitory activity against 3CL protease of 2019 novel coronavirus (FRET). In kind it is biochemical. On the procedure:
To determine the inhibitory activity of the compound against 3CL protease of 2019 novel coronavirus (2019-nCoV 3CL^pro): the enzyme level inhibitory activity of inhibitors against 3CL protease was determined by fluorescence resonance energy transfer (FRET) technology. In a 96-well plate, 27.5 μL of buffer (20 mM Tris, 100 mM NaCl, 1 mM EDTA, pH 7.4) was added to each well, 2.5 μL compounds ([…], respectively) and 5 μL […] (final concentration was 3 μM) were added at the same time. Incubated at 37° C. for 15 min. Then 15 μL fluorescent substrate diluted with buffer (final concentration was 20 μM) was added. The fluorescence parameters were determined by Ge n5 fluorescence spectrophotometer. The excitation wavelength and emission wavelength were 340 nm and 490 nm respectively, kept at 37° C., and the data were read after 10 min. A negative control was used, in which no compound was added to the control, and the rest was the same.

In series [2] the test system is 2019 novel coronavirus (2019-nCov). Briefly: Inhibitory activity on replication of 2019 novel coronavirus (cytopathic effect, MTS, RD cells). Type of series: cell-based. Particulars: for virus inhibitory activity (in words): CQ as positive control, different concentration gradients; for EC50: Severe acute respiratory syndrome coronavirus 2, RD, read-out: EC50, inhibition of 2019-nCoV virus replication. (Protection from cytopathic effect is a common read-out in antiviral testing.)

The nature of series [3]: Toxicity test in SD rats with repeated intravenous administration. In kind it is in vivo. An excerpt: The purpose of this experiment is to observe the potential toxicity of SD rats after intravenous DC406009 for 7 consecutive days and to determine the possible toxic target organs. To provide non-toxic dose and/or toxic dose for the subsequent toxicity test design and clinical trial protocol design. To assess the level of drug exposure in vivo, a toxicokinetic evaluation is accompanied.
36 SD rats were divided into 8 groups (3 in toxicity test group/gender/group, a total of 5 groups; 1 in toxic satellite group/gender/group, 3 groups), intravenous injection of solvent (5% DMSO/5% EtOH/40% PEG300/50% NaCl), 0.9% sodium chloride injection and DC406009 (5, 15, 30 mg/kg/day), once a day for 7 consecutive days, all animals were euthanized on Day 8. During the test, the following indicators were evaluated: toxicology (only samples were collected), clinical observation, body weight, food consumption, clinical pathology (hematology, hemagglutination, plasma biochemistry) and anatomical macroscopic morphological observation.

Chain of human cathepsin L (P07711 114-333): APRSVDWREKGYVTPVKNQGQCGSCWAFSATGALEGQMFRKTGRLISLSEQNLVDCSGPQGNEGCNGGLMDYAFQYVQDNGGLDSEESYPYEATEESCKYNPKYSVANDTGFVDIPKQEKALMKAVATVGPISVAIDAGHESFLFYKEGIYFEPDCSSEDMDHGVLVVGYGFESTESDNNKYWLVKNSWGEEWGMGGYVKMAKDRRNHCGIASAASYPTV

Consider `CCN(CC)CCCC(C)Nc1ccnc2cc(Cl)ccc12` (stereo not drawn) [CQ], for which the EC50 in series [1] was 1130 nM.
`O=C(NCc1ccccc1)C(=O)[C@H](C[C@@H]1CCCNC1=O)NC(=O)[C@H](CC1CCCCC1)NC(=O)c1cc2ccccc2[nH]1` [Example A5, N—((S)-1-(((S)-4-(benzylamino)-3,4-dione-1-((S)-2-oxopiperidin-3-yl)but-2-yl)amino)-3-cyclohexyl-1-oxopropan-2-yl)-1H-indole-2-carboxamide] registered an IC50 on human cathepsin L of 0.45 ± 0.02 nM.
As to `O=C(NCc1ccccc1)C(=O)[C@H](C[C@@H]1CCCNC1=O)NC(=O)[C@H](CC1CCCCC1)NC(=O)c1cc2ccccc2o1` [Example A13, N—((S)-1-(((S)-4-(benzylamino)-3,4-dione-1-((S)-2-oxopiperidin-3-yl)but-2-yl)amino)-3-cyclohexyl-1-oxopropan-2-yl)-benzofuran-2-carboxamide], the IC50 at 2019-nCoV 3CL protease (FRET, 37° C., substrate 20 μM) came out at 2.4 µM; on human cathepsin L, 1.36 ± 0.04 nM. In series [2], the “virus inhibitory activity (in words)” value is reported as “excellent virus inhibitory activity”. In addition, the 50% effective concentration (EC50) in series [2] was 9240 nM.
In the case of `O=C(NCc1ccccc1)C(=O)[C@H](C[C@@H]1CCCNC1=O)NC(=O)[C@H](Cc1cccc(F)c1)NC(=O)c1cc2ccccc2o1` [Example A284], on human cathepsin L, the IC50 is 0.45 ± 0.01 nM.
Turning to `O=C(NCc1ccccc1)C(=O)[C@H](C[C@@H]1CCCNC1=O)NC(=O)[C@H](Cc1ccc(F)cc1)NC(=O)c1cc2ccccc2o1` [Example A289], the inhibition at 1 µM at 2019-nCoV 3CL protease (compound 1 uM, read-out: 1 uM inhibition rate) is 13.5%. The inhibition at 10 µM at 2019-nCoV 3CL protease (compound 10 uM, read-out: 10 uM inhibition rate) is 40.8%. Besides, in series [3] (SD rats, 5, 15, 30 mg/kg/day intravenously once a day for 7 consecutive days), the “tolerability (in words)” value is reported as “animals can tolerate”. Besides, in series [3] (both sexes, SD, rat, in vivo, iv), the MTD at 7 days is above 30 mg/kg/day. Besides, in series [2], the “virus inhibitory activity (in words)” value is “excellent virus inhibitory activity” and the half-maximal effective concentration (EC50) turned out to be 296 nM. Further, the “virus inhibitory activity (in words)” value in series [2] (listed as 6009) is on record as “better than that of positive control CQ”. The compound also yielded a concentration for half-maximal inhibition (IC50) against human cathepsin L of 0.66 ± 0.008 nM.
The compound `O=C(NCc1ccccc1)C(=O)[C@H](C[C@@H]1CCCNC1=O)NC(=O)[C@H](Cc1ccc(F)c(F)c1)NC(=O)c1cc2ccccc2o1` [Example A290] registered a half-inhibitory concentration (IC50) at human cathepsin L of 0.47 ± 0.06 nM.
In turn, `O=C(NC1CC1)C(=O)[C@H](C[C@@H]1CCCNC1=O)NC(=O)[C@H](CC1CCCCC1)NC(=O)c1cc2ccccc2o1` [Example A309, N—((S)-1-(((S)-4-(cyclopropylamino)-3,4-dione-1-((S)-2-oxopiperidin-3-yl)but-2-yl)amino)-3-cyclohexyl-1-oxopropan-2-yl)-benzofuran-2-carboxamide] had an IC50 against human cathepsin L of 0.63 ± 0.08 nM.
At human cathepsin L, `O=C(NC1CC1)C(=O)[C@H](C[C@@H]1CCCNC1=O)NC(=O)[C@H](Cc1ccc(F)cc1)NC(=O)c1cc2ccccc2o1` [Example A310, N—((S)-1-(((S)-4-(cyclopropylamino)-3,4-dione-1-((S)-2-oxopiperidin-3-yl)but-2-yl)amino)-3-(4-fluorophenyl)-1-oxopropan-2-yl)-benzofuran-2-carboxamide] returned an IC50 of 0.57 ± 0.01 nM.
